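Exposure lasted 48 hours, with cells grown in 96-well plates and compounds tested at five concentrations. GI50 = concentration required for 50% inhibition of growth. At the TGI there is no net growth.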
Key:
Assay in all cases: DTP human tumour cell line panel, 48 h
[1] = test system: SN12C renal
[2] = test system: RXF 393 renal
[3] = test system: SK-OV-3 ovarian
[4] = test system: MDA-MB-231 breast
[5] = test system: HOP-92 NSCLC
[6] = test system: SNB-19 CNS
[7] = test system: HS 578T breast
[8] = test system: SNB-75 CNS
[9] = test system: NCI-H226 lung
[10] = test system: 786-0 renal
[11] = test system: UACC-62 melanoma
[12] = test system: LOX IMVI melanoma
[13] = test system: HCC-2998 colon
[14] = test system: SF-295 CNS
[15] = test system: T-47D breast
[16] = test system: IGROV1 ovarian
[17] = test system: COLO 205 colon
[18] = test system: HCT-15 colon
[19] = test system: PC-3 prostate
[20] = test system: SK-MEL-2 melanoma
[21] = test system: HL-60(TB) leukemia
[22] = test system: OVCAR-3 ovarian
[23] = test system: HCT-116 colon
[24] = test system: A498 renal
[25] = test system: SW-620 colon
[26] = test system: MDA-MB-435
[27] = test system: SF-268 CNS
[28] = test system: U251 CNS
[29] = test system: OVCAR-5 ovarian

For `CN1CCN(Cc2ccc(NC(=O)c3cncc(C#Cc4cnc5ccc(N)nn45)c3)cc2C(F)(F)F)CC1`, which GI50 [1] is on record?
Its GI50 is 850 nM.

And the TGI [1]?
The TGI was 4480 nM.

And the GI50 [2]?
Its GI50 is 842 nM.

What about the TGI [2] of the same molecule?
Its TGI is 1780 nM.

And the GI50 [3]?
Its GI50 is 2540 nM.

And the TGI [3]?
Its TGI is 25700 nM.

What about the GI50 [4] of the same molecule?
The GI50 was 352 nM.

And the TGI [4]?
Its TGI is 2610 nM.

And the GI50 [5]?
The GI50 was 138 nM.

And the TGI [5]?
The TGI was 538 nM.

What about the GI50 [6] of the same molecule?
Its GI50 is 1680 nM.

What about the TGI [6] of the same molecule?
Its TGI is 15300 nM.

And the GI50 [7]?
The GI50 was 804 nM.

And the TGI [7]?
Its TGI is 5300 nM.

What about the GI50 [8] of the same molecule?
The GI50 was 593 nM.

And the TGI [8]?
Its TGI is 3180 nM.

What about the GI50 [9] of the same molecule?
The GI50 was 214 nM.

And the TGI [9]?
Its TGI is 6120 nM.

And the GI50 [10]?
Its GI50 is 2080 nM.

And the TGI [10]?
The TGI was 6220 nM.

What about the GI50 [11] of the same molecule?
The GI50 was 1360 nM.

And the TGI [11]?
Its TGI is 5050 nM.

What about the GI50 [12] of the same molecule?
The GI50 was 510 nM.

And the TGI [12]?
The TGI was 1280 nM.

And the GI50 [13]?
Its GI50 is 1180 nM.

What about the TGI [13] of the same molecule?
Its TGI is 5650 nM.

And the GI50 [14]?
The GI50 was 2850 nM.

What about the TGI [14] of the same molecule?
Its TGI is 10900 nM.

And the GI50 [15]?
Its GI50 is 2570 nM.

What about the TGI [15] of the same molecule?
The TGI was 23900 nM.

What about the GI50 [16] of the same molecule?
Its GI50 is 1070 nM.

And the TGI [16]?
Its TGI is 4640 nM.

What about the GI50 [17] of the same molecule?
Its GI50 is 348 nM.

What about the TGI [17] of the same molecule?
The TGI was 1350 nM.

And the GI50 [18]?
Its GI50 is 1990 nM.

What about the TGI [18] of the same molecule?
Its TGI is 12200 nM.

What about the GI50 [19] of the same molecule?
Its GI50 is 1330 nM.

What about the TGI [19] of the same molecule?
The TGI was 10800 nM.

What about the GI50 [20] of the same molecule?
Its GI50 is 591 nM.

What about the TGI [20] of the same molecule?
Its TGI is 1940 nM.

What about the GI50 [21] of the same molecule?
Its GI50 is 306 nM.

What about the TGI [21] of the same molecule?
The TGI was 1550 nM.

What about the GI50 [22] of the same molecule?
The GI50 was 1670 nM.

And the TGI [22]?
Its TGI is 12600 nM.

And the GI50 [23]?
The GI50 was 233 nM.

What about the TGI [23] of the same molecule?
The TGI was 2890 nM.

What about the GI50 [24] of the same molecule?
Its GI50 is 2720 nM.

And the TGI [24]?
Its TGI is 10600 nM.

What about the GI50 [25] of the same molecule?
The GI50 was 356 nM.

What about the TGI [25] of the same molecule?
The TGI was 3110 nM.

What about the GI50 [26] of the same molecule?
Its GI50 is 674 nM.

And the TGI [26]?
Its TGI is 5780 nM.

And the GI50 [27]?
Its GI50 is 867 nM.

And the TGI [27]?
Its TGI is 3460 nM.

What about the GI50 [28] of the same molecule?
Its GI50 is 1300 nM.

And the TGI [28]?
The TGI was 6980 nM.

And the GI50 [29]?
The GI50 was 1410 nM.

And the TGI [29]?
The TGI was 9400 nM.
